This note sets out measurements from US8642067B2, “Methods and compositions for intraocular administration to treat ocular conditions” (Allergen, Inc., priority 2007, dated 2014).

The term AUC(0-t) denotes the area under the concentration-time curve up to a stated or last time point. Usually Vd stands for the apparent volume that relates the amount in the body to the concentration in plasma or blood. Higher therefore signals wide distribution into tissue. In general, clearance refers to the rate of elimination divided by the concentration. Lower therefore signals inefficient removal. A word on the half-life: it is the time needed for the level to fall by half in the phase considered. A high value points to slow decline.

One series in a line: in vivo. Particulars: female, albino, rabbit.
The next series relates to macula edema patient. The series can be described thus: Treatment of macular edema with intravitreal TKI composition (ETDRS visual acuity chart). The class given is in vivo, human. To be noted: twelve months after first injection; 1 mg intravitreal every 4 months; high viscosity hyaluronate solution such as Example 13 formulation. How it is done: An obese patient with symptoms of diabetes presents with vision loss due to macula edema with central retinal vein occlusion and/or branch retinal vein occlusion. They receive intravitreal injection of 1 mg of a high viscosity TKI (polymeric hyaluronate based) solution containing COMPOUND F, such as the Example 13 formulation. Equivalent injections are made every 4 months.

Description for in vivo: Vitreous humor samples (n=4 eyes per timepoint) were collected at 0.5, 1, 2, 4, 8, and 12 hr postdose. The TKI concentration in the vitreous humor was determined using a liquid chromatography tandem mass spectrometry method (LC-MS/MS).

For the compound `Nc1ccc2c(c1)/C(=C1\C(=O)Nc3ccc(Cl)cc31)OC2` [COMPOUND A, 3-(6-Amino-3H-isobenzofuran-1-ylidene)-5-chloro-1,3-dihydro-indol-2-one], in the series “in vivo”, the AUC(0-t) came out at 778 ng·h/mL, the C0 is 566 ng/mL, the distribution volume (Vd) stood at 0.000705 L and the clearance is 0.00433 mL/min. This compound also showed a half-life in the series “in vivo” of 2.59 h.
Consider `Cc1cc(C(=O)Nc2cccc(C#Cc3cncc(C(=O)N=S(C)(=O)c4ccc(CCC(=O)O)cc4)c3)c2)n(C)n1` (stereo not drawn) [COMPOUND F], for which the “improved best corrected visual acuity from baseline (ETDRS chart)” value in the series with macula edema patient is on record as “fifteen”.
